Experimental data published in patent publication US20140120083A1, “TREATMENT OF CANCERS USING PI3 KINASE ISOFORM MODULATORS” (INFINITY PHARMACEUTICALS, INC., priority 2012, published 2014).

Key:
Type in all cases: biochemical
PI3K γ = target: T1, PI3K γ (Homo sapiens, UniProt P48736); test: In vitro IC50, PI3K γ
T1 construct: purchased Sigma
Source text: (§1) An exemplary system is PI 3-Kinase (human) HTRF™ Assay from Upstate.

PI3K α = target: T2, PI3K α (Homo sapiens, UniProt P42336); test: In vitro IC50, PI3K α
T2 construct: purchased Upstate
T2 sequence (P42336 whole entry): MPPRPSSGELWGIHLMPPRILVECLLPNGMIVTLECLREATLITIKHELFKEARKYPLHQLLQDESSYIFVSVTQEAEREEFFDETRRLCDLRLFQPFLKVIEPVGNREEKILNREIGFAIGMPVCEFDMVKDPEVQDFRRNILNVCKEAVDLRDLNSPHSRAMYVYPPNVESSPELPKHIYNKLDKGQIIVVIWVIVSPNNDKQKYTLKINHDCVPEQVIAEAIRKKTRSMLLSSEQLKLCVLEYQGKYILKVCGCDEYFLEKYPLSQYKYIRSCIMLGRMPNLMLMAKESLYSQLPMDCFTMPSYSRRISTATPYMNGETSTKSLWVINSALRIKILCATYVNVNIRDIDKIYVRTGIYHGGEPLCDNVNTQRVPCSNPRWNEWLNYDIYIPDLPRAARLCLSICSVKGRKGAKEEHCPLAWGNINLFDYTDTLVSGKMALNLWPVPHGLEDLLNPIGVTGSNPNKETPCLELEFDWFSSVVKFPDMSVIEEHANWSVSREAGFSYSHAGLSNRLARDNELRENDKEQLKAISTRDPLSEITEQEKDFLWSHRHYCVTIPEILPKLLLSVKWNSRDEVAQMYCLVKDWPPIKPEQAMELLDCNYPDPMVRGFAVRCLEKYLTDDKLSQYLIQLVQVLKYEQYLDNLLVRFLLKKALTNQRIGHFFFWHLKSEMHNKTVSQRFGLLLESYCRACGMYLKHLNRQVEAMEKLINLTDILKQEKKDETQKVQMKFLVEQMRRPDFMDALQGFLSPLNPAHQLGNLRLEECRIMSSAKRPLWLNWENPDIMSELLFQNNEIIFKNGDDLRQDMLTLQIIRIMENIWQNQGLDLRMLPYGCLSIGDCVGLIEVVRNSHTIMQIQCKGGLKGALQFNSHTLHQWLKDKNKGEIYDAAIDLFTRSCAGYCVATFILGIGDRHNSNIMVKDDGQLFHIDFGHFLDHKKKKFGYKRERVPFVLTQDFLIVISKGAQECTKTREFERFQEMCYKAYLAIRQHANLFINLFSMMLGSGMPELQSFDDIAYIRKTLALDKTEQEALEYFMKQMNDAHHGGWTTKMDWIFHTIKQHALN
T2 sequence (P27986 whole entry partner): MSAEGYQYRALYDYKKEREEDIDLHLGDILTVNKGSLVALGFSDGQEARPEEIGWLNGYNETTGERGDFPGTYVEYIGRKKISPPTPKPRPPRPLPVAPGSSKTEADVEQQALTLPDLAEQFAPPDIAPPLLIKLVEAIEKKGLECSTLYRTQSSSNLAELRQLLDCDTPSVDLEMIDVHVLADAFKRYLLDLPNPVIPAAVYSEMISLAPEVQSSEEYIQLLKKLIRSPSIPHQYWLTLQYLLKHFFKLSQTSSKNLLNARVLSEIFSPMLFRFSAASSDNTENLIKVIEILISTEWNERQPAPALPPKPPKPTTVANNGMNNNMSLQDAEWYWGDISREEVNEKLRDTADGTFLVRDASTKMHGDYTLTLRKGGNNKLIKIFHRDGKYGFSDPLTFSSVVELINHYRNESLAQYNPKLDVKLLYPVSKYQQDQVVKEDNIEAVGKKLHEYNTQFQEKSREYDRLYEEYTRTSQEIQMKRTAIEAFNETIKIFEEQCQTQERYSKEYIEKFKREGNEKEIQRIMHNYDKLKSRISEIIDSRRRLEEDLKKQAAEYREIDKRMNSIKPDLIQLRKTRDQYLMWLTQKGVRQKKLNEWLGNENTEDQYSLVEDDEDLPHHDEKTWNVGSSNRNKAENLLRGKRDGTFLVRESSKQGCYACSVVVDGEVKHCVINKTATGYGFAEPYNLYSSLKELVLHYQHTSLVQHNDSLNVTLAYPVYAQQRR
Source text: as §1

PI3K β = PI3K β (Homo sapiens, UniProt P42338); test: In vitro IC50, PI3K β
Sequence of PI3K β (P42338 whole entry): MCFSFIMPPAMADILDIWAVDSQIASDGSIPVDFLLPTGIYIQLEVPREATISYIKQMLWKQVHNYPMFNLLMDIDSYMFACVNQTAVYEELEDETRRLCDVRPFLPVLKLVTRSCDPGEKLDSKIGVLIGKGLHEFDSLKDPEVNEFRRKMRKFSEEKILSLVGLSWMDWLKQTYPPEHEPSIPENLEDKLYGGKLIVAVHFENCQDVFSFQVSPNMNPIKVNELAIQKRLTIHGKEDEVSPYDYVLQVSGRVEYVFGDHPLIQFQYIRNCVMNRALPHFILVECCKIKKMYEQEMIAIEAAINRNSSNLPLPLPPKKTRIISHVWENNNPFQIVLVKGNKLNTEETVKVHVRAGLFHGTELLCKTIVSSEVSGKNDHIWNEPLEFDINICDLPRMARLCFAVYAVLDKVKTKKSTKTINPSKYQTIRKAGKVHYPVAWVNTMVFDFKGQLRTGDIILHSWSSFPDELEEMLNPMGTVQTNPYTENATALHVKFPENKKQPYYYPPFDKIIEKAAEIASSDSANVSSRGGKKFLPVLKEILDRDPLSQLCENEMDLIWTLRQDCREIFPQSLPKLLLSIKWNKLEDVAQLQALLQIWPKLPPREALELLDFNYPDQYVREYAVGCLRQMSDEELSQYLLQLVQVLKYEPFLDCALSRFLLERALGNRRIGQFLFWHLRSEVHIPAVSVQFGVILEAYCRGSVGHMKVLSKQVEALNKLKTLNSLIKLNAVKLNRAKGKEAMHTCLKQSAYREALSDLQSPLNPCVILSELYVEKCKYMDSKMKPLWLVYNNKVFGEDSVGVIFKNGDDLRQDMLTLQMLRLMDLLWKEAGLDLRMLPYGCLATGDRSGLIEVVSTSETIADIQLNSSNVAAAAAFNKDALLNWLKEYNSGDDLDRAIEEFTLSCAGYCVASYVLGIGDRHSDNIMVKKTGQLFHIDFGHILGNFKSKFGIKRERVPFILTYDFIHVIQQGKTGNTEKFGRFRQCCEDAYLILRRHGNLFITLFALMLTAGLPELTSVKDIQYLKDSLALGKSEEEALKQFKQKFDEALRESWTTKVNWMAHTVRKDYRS
Source text: as §1

PI3K δ = PI3K δ (Homo sapiens, UniProt O00329); test: In vitro IC50, PI3K δ; set-up: purchased Upstate
Sequence of PI3K δ (O00329 whole entry): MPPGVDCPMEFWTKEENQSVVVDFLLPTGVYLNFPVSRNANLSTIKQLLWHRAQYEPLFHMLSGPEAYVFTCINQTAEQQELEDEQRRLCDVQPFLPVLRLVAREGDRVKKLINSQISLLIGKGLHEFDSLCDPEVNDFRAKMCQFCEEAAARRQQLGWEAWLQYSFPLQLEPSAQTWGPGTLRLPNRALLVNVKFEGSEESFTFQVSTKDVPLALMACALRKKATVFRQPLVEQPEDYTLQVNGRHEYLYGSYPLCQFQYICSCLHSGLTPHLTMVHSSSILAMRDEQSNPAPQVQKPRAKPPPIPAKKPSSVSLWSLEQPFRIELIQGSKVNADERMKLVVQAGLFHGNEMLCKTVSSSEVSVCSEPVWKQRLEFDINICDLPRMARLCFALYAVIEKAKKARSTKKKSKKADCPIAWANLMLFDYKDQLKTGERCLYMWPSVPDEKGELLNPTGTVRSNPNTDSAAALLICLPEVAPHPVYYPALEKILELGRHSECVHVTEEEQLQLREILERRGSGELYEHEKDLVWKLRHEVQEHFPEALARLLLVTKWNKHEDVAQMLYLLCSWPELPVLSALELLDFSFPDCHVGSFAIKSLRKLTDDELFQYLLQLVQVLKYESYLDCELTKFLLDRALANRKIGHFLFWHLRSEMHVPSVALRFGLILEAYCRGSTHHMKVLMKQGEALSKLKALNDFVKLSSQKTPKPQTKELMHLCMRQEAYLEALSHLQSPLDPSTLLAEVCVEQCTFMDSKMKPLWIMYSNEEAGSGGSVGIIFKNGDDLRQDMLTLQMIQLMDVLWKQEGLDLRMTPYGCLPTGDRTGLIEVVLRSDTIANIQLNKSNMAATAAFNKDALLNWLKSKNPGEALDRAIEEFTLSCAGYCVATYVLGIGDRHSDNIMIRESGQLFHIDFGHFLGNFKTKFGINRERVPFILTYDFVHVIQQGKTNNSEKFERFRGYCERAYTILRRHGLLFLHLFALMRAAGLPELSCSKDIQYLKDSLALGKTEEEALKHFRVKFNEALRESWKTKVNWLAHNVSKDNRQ
Sequence of PI3K δ (P27986 whole entry partner): as the sequence (P27986 whole entry partner) above
Source text: as §1

T1 sequence (P48736 whole entry): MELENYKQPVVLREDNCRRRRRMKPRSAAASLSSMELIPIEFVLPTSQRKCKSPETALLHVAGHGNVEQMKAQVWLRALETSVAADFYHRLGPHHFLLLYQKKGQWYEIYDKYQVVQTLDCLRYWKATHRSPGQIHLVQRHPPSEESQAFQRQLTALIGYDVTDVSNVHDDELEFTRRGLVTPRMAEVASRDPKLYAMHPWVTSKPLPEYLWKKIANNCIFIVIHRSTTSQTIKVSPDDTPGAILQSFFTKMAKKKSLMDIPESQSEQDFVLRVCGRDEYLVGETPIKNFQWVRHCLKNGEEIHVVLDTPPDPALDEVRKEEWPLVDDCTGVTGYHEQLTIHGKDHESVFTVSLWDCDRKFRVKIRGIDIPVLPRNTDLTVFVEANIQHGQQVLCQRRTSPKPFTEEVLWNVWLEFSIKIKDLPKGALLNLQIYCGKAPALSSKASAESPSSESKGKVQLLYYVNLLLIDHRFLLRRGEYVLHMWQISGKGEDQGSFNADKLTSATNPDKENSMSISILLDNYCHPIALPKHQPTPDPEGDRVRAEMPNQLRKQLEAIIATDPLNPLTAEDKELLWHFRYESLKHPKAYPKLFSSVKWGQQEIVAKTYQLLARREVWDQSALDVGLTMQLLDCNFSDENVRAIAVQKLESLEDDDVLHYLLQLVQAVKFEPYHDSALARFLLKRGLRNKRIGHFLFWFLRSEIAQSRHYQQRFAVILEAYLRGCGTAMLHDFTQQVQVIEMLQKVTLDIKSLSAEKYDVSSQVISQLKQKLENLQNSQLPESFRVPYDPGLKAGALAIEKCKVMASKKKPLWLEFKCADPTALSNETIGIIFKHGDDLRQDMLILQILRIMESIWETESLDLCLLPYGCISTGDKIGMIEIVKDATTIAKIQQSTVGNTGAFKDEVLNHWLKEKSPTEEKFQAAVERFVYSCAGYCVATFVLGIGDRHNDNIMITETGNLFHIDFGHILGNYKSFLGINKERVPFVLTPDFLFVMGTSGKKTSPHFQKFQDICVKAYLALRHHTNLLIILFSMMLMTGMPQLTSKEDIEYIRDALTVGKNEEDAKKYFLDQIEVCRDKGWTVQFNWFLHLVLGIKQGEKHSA

Structure (SMILES)	IC50 (PI3K γ)	IC50 (PI3K α)	IC50 (PI3K β)	IC50 (PI3K δ)
Cc1cccc2cc(Cn3nc(C#C[C@@H](C)O)c4c(N)ncnc43)n(C3CC3)c(=O)c12 [Compound 100]	< 1000 nM	> 10 µM	< 1 µM	< 100 nM
Cc1cccc2cc(Cn3nc(-c4cc(O)cc(F)c4)c4c(N)ncnc43)n(C3CC3)c(=O)c12 [Compound 101]	< 100 nM	< 1 µM	< 0.1 µM	< 100 nM
Cc1cccc2cc(Cn3nc(-c4cccc(O)c4)c4c(N)ncnc43)n(C3CC3)c(=O)c12 [Compound 102]	< 100 nM	< 1 µM	< 1 µM	< 100 nM
Cc1cccc2cc(Cn3nc(I)c4c(N)ncnc43)n(-c3ccccc3OCCN3CCOCC3)c(=O)c12 [Compound 103]	< 1000 nM	> 10 µM	> 10 µM	< 100 nM
Cc1cccc2cc(Cn3nc(I)c4c(N)ncnc43)n(C3CCC3)c(=O)c12 [Compound 105]	< 10000 nM	> 10 µM	> 10 µM	< 100 nM
COc1cccc(-c2nn(Cc3cc4cccc(C)c4c(=O)n3-c3ccccc3C)c3ncnc(N)c23)c1 [Compound 106]	< 1000 nM	> 10 µM	< 10 µM	< 1000 nM
Cc1cccc2cc(Cn3nc(I)c4c(N)ncnc43)n(C)c(=O)c12 [Compound 107]	< 10000 nM	> 10 µM	> 10 µM	< 1000 nM
Cc1cccc2cc(Cn3nc(-c4cc(O)cc(F)c4)c4c(N)ncnc43)n(-c3ccccc3OCCN3CCOCC3)c(=O)c12 [Compound 108]	< 1000 nM	< 10 µM	< 10 µM	< 100 nM
Cc1cccc2cc(Cn3nc(-c4cccc(O)c4)c4c(N)ncnc43)n(-c3ccccc3OCCN3CCOCC3)c(=O)c12 [Compound 109]	< 1000 nM	> 10 µM	> 10 µM	< 100 nM
Nc1ncnc2c1c(-c1cc(O)cc(F)c1)nn2Cc1cc2cccc(Cl)c2c(=O)n1C1CC1 [Compound 142]	< 100 nM	< 0.1 µM	< 0.1 µM	< 100 nM
Cc1ccccc1-n1c(Cn2nc(-c3ccc4nc(N)sc4c3)c3c(N)ncnc32)cc2cccc(C)c2c1=O [Compound 145]	< 100 nM	< 1 µM	< 10 µM	< 100 nM
Cc1cccc2cc(Cn3nc(-c4cccc(O)c4)c4c(N)ncnc43)n(-c3ccccc3)c(=O)c12 [Compound 146]	< 100 nM	> 10 µM	> 10 µM	< 100 nM
Cc1cccc2cc(Cn3nc(-c4cc(O)cc(F)c4)c4c(N)ncnc43)n(-c3ccccc3)c(=O)c12 [Compound 147]	< 100 nM	< 1 µM	< 10 µM	< 100 nM
Cc1ccccc1-n1c(Cn2nc(-c3ccc4nc(N)ccc4c3)c3c(N)ncnc32)cc2cccc(C)c2c1=O [Compound 149]	< 100 nM	< 1 µM	< 10 µM	< 100 nM
Cc1ccccc1-n1c(Cn2nc(-c3ccc4nc(N)ncc4c3)c3c(N)ncnc32)cc2cccc(C)c2c1=O [Compound 150]	< 100 nM	< 0.1 µM	< 1 µM	< 100 nM
Cc1ccccc1-n1c(Cn2nc(-c3ccc4oc(N)nc4c3)c3c(N)ncnc32)cc2cccc(C)c2c1=O [Compound 151]	< 100 nM	< 1 µM	< 10 µM	< 100 nM
Cc1ccccc1-n1c(Cn2nc(-c3ccc4ncnc(N)c4c3)c3c(N)ncnc32)cc2cccc(C)c2c1=O [Compound 152]	< 100 nM	< 10 µM	> 10 µM	< 100 nM
Cc1ccccc1-n1c(Cn2nc(-c3cn[nH]c3)c3c(N)ncnc32)cc2cccc(C)c2c1=O [Compound 160]	< 100 nM	> 10 µM	< 10 µM	< 100 nM
Cc1cccc2cc(Cn3nc(-c4cn[nH]c4)c4c(N)ncnc43)n(-c3ccccc3F)c(=O)c12 [Compound 161]	< 1000 nM	> 10 µM	< 10 µM	< 100 nM
Cc1cccc2cc(Cn3nc(-c4cnn(CCO)c4)c4c(N)ncnc43)n(-c3ccccc3F)c(=O)c12 [Compound 162]	< 1000 nM	> 10 µM	> 10 µM	< 100 nM
Cc1cccc2cc(Cn3nc(-c4cnn(C)c4)c4c(N)ncnc43)n(-c3ccccc3F)c(=O)c12 [Compound 164]	< 10000 nM	> 10 µM	> 10 µM	< 10000 nM
Cc1ccccc1-n1c(Cn2nc(-c3cnn(C)c3)c3c(N)ncnc32)cc2cccc(C)c2c1=O [Compound 165]	< 1000 nM	> 10 µM	> 10 µM	< 10000 nM
Cc1cccc2cc(Cn3nc(-c4cn[nH]c4)c4c(N)ncnc43)n(-c3cccc(F)c3)c(=O)c12 [Compound 166]	< 1000 nM	> 10 µM	> 10 µM	< 100 nM

Structure (SMILES)	IC50 (PI3K γ)	IC50 (PI3K α)	IC50 (PI3K β)	IC50 (PI3K δ)
Cc1cccc2cc(C(C)Nc3ncnc4[nH]cnc34)n(-c3ccccc3F)c(=O)c12 (stereo not shown) [Compound 167]	< 100 nM	> 10 µM	< 10 µM	< 100 nM
Cc1cccc2cc(Cn3nc(C#N)c4c(N)ncnc43)n(-c3ccccc3F)c(=O)c12 [Compound 169]	> 10000 nM	> 10 µM	> 10 µM	< 100 nM
Cc1ccccc1-n1c(Cn2nc(C#N)c3c(N)ncnc32)cc2cccc(C)c2c1=O [Compound 170]	< 10000 nM	> 10 µM	> 10 µM	< 100 nM
Cc1cccc2cc(Cn3nc(/C=C4/SC(=O)NC4=O)c4c(N)ncnc43)n(-c3ccccc3F)c(=O)c12 [Compound 171]	< 100 nM	< 10 µM	< 10 µM	< 100 nM
Cc1cccc2cc(Cn3nc(/C=C4/CCNC4=O)c4c(N)ncnc43)n(-c3ccccc3F)c(=O)c12 [Compound 172]	> 10000 nM	> 10 µM	> 10 µM	< 10000 nM
Cc1ccccc1-n1c(Cn2nc(/C=C3/SC(=O)NC3=O)c3c(N)ncnc32)cc2cccc(C)c2c1=O [Compound 173]	< 100 nM	< 10 µM	< 10 µM	< 100 nM
Cc1ccccc1-n1c(Cn2nc(/C=C/C(N)=O)c3c(N)ncnc32)cc2cccc(C)c2c1=O [Compound 174]	< 100 nM	> 10 µM	< 10 µM	< 100 nM
Cc1ccccc1-n1c(Cn2nc(CCC(N)=O)c3c(N)ncnc32)cc2cccc(C)c2c1=O [Compound 175]	< 10000 nM	> 10 µM	> 10 µM	< 1000 nM
CCn1c(Cn2nc(-c3ccc4nc(NC(C)=O)sc4c3)c3c(N)ncnc32)cc2cccc(C)c2c1=O [Compound 176]	< 100 nM	< 0.1 µM	< 1 µM	< 100 nM
CC(=O)Nc1nc2ccc(-c3nn(Cc4cc5cccc(C)c5c(=O)n4-c4ccccc4)c4ncnc(N)c34)cc2s1 [Compound 177]	< 100 nM	< 1 µM	< 10 µM	< 100 nM
C=Cc1nn(Cc2cc3cccc(C)c3c(=O)n2-c2ccccc2F)c2ncnc(N)c12 [Compound 179]	< 10000 nM	> 10 µM	> 10 µM	< 1000 nM
C=Cc1nn(Cc2cc3cccc(C)c3c(=O)n2-c2ccccc2C)c2ncnc(N)c12 [Compound 180]	< 1000 nM	> 10 µM	> 10 µM	< 100 nM
COc1cc(F)cc(-c2nn(Cc3cc4cccc(C)c4c(=O)n3-c3ccccc3C)c3ncnc(N)c23)c1 [Compound 181]	< 10000 nM	> 10 µM	> 10 µM	< 1000 nM
Cc1ccccc1-n1c(Cn2nc(-c3ccn[nH]3)c3c(N)ncnc32)cc2cccc(C)c2c1=O [Compound 182]	< 100 nM	> 10 µM	> 10 µM	< 1000 nM
Cc1cccc2cc(Cn3nc(-c4ccn[nH]4)c4c(N)ncnc43)n(-c3ccccc3F)c(=O)c12 [Compound 183]	< 10000 nM	> 10 µM	> 10 µM	< 1000 nM
Cc1cccc2cc(Cn3nc(-c4cn[nH]c4)c4c(N)ncnc43)n(-c3ccccc3C(C)C)c(=O)c12 [Compound 185]	< 100 nM	< 10 µM	< 1 µM	< 100 nM
CCN(Cc1cc2cccc(C)c2c(=O)n1-c1ccccc1C)c1ncnc2[nH]cnc12 [Compound 186]	< 10000 nM	> 10 µM	> 10 µM	< 10000 nM
Cc1cccc2cc(Cn3nc(-c4cn[nH]c4)c4c(N)ncnc43)n(-c3ccccc3Cl)c(=O)c12 [Compound 188]	< 1000 nM	> 10 µM	> 10 µM	< 100 nM
Nc1ncnc2c1c(-c1cn[nH]c1)nn2Cc1cc2cccc(F)c2c(=O)n1-c1ccccc1F [Compound 189]	< 10000 nM	> 10 µM	> 10 µM	< 1000 nM
CCc1ccccc1-n1c(Cn2nc(-c3cn[nH]c3)c3c(N)ncnc32)cc2cccc(C)c2c1=O [Compound 190]	< 100 nM	< 10 µM	< 10 µM	< 100 nM
Cc1ccccc1-n1c(C(C)Nc2ncnc3[nH]cnc23)cc2cccc(C)c2c1=O (stereo not shown) [Compound 191]	< 100 nM	> 10 µM	< 10 µM	< 100 nM
Cc1ccccc1-n1c(Cn2nc(/C=C/C(=O)N3CCOCC3)c3c(N)ncnc32)cc2cccc(C)c2c1=O [Compound 192]	> 10000 nM	> 10 µM	> 10 µM	< 1000 nM
Cc1ccccc1-n1c(Cn2nc(CCC(=O)N3CCOCC3)c3c(N)ncnc32)cc2cccc(C)c2c1=O [Compound 193]	> 10000 nM	> 10 µM	> 10 µM	< 10000 nM
